Results published in ChEMBL document CHEMBL3228005, “Inhibition of rat passive cutaneous anaphylaxis by 3-(tetrazol-5-yl)quinolines” (1979).

Tests used:
Format in all cases: functional
[1] = test system: Rattus norvegicus; assay: Inhibition of passive cutaneous anaphylaxis in po dosed Sprague-Dawley rat; details: read-out: MED
[2] = test system: Rattus norvegicus; assay: Inhibition of passive cutaneous anaphylaxis in ip dosed Sprague-Dawley rat; details: for minimal effective dose: read-out: MED
[3] = test system: Rattus norvegicus; assay: Inhibition of passive cutaneous anaphylaxis in po dosed Sprague-Dawley rat administered with ball-milled suspension; details: read-out: MED
[4] = test system: Rattus norvegicus; assay: Ratio of disodium cromoglycate MED to compound MED for inhibition of passive cutaneous anaphylaxis in ip dosed Sprague-Dawley rat
[5] = test system: Rattus norvegicus; assay: Inhibition of passive cutaneous anaphylaxis in ip dosed Sprague-Dawley rat administered with ball-milled suspension; details: read-out: MED
[6] = test system: Rattus norvegicus; assay: Ratio of doxantrazole MED to compound MED for inhibition of passive cutaneous anaphylaxis in po dosed Sprague-Dawley rat

SMILES	minimal effective dose [1] [mg/kg]	minimal effective dose [2] [mg/kg]	further results
O=C(O)c1cnc2c(F)cccc2c1O	> 100	–	–
COc1cccc2c(O)c(C(=O)O)cnc12	> 100	10	–
O=C(O)c1cnc2ccccc2c1	150	50	–
Cc1cc(F)c2[nH]cc(-c3nn[nH]n3)c(=O)c2c1.O	> 10	2.5	–
Cl.O=C(O)c1cnc2ccc(F)cc2c1	> 50	–	–
O=C(O)c1cnc2ccc(C(F)(F)F)cc2c1	> 50	> 25	–
COc1ccc2ncc(C(=O)O)cc2c1	–	> 5	–
O=C(O)c1cnc2ccc(OC3CCCCC3)cc2c1	–	> 25	–
O=C(O)c1cnc2ccc(C3CCCCC3)cc2c1	–	> 25	–
O=C(O)c1cnc2cc(C(F)(F)F)ccc2c1	> 25	> 25	–
COc1ccc2cc(C(=O)O)cnc2c1.Cl	–	> 25	–
O.O=C(O)c1cnc2c(F)cccc2c1	150	> 25	–
O=C(O)c1cnc2c(Cl)cccc2c1	150	25	–
O=C(O)c1cnc2c(C(F)(F)F)cccc2c1	75	50	–
Cc1cccc2cc(C(=O)O)cnc12	> 25	> 50	–
CCc1cccc2cc(C(=O)O)cnc12	75	> 50	–
COc1cccc2cc(C(=O)O)cnc12	150	25	–
CCOc1cccc2cc(C(=O)O)cnc12	> 50	> 25	–
COc1ccc(OC)c2ncc(C(=O)O)cc12	> 50	> 25	–
O=C(O)c1cnc2c(F)cc(F)cc2c1	–	25	–
Cc1ccc2cc(C(=O)O)cnc2c1C	50	25	–
O=C(O)c1cnc2c3c(ccc2c1)CCCC3	50	25	–
O=C(O)c1cnc2c(ccc3ccccc32)c1	50	25	–
c1ccc2ncc(-c3nn[nH]n3)cc2c1	25	10	–

SMILES	minimal effective dose [1] [mg/kg]	minimal effective dose [2] [mg/kg]	further results
Fc1ccc2ncc(-c3nn[nH]n3)cc2c1	50	< 25	–
COc1ccc2ncc(-c3nn[nH]n3)cc2c1.O	> 25	10	–
Cl.c1cc2ncc(-c3nn[nH]n3)cc2cc1OC1CCCCC1	10	5	–
CCCCc1ccc2ncc(-c3nn[nH]n3)cc2c1	> 25	5	–
Cl.c1nc2ccc(C3CCCCC3)cc2cc1-c1nn[nH]n1	> 25	5	–
FC(F)(F)c1ccc2cc(-c3nn[nH]n3)cnc2c1	25	< 10	–
COc1ccc2cc(-c3nn[nH]n3)cnc2c1.Cl	> 25	5	–
Fc1cccc2cc(-c3nn[nH]n3)cnc12	–	> 10	–
FC(F)(F)c1cccc2cc(-c3nn[nH]n3)cnc12	25	< 25	–
Cc1cccc2cc(-c3nn[nH]n3)cnc12	25	< 25	–
CCc1cccc2cc(-c3nn[nH]n3)cnc12	5	2.5	–
COc1cccc2cc(-c3nn[nH]n3)cnc12	> 25	2.5	–
COc1ccc(OC)c2ncc(-c3nn[nH]n3)cc12	> 50	5	–
Fc1cc(F)c2ncc(-c3nn[nH]n3)cc2c1	> 50	10	–
Cc1ccc2cc(-c3nn[nH]n3)cnc2c1C	25	1	–
c1nc2c3c(ccc2cc1-c1nn[nH]n1)CCCC3	5	5	–
c1ccc2c(c1)ccc1cc(-c3nn[nH]n3)cnc12	10	5	–
Cc1cc([N+](=O)[O-])c2cc(-c3nn[nH]n3)cnc2c1C	25	2.5	–
O.O=c1c(-c2nn[nH]n2)c[nH]c2ccccc12	> 20	1.25	–
O.O=c1c(-c2nn[nH]n2)c[nH]c2ccc(F)cc12	> 20	1.25	–
O=c1c(-c2nn[nH]n2)c[nH]c2ccc(Cl)cc12	> 25	> 10	–
Cc1ccc2[nH]cc(-c3nn[nH]n3)c(=O)c2c1.O	> 25	1.25	–
CCc1ccc2[nH]cc(-c3nn[nH]n3)c(=O)c2c1.O	0.625	< 5	minimal effective dose [3]: 0.156 mg/kg
CCc1ccc2c(=O)c(-c3nn[nH]n3)c[nH]c2c1.O	> 10	< 5	–

SMILES	minimal effective dose [1] [mg/kg]	minimal effective dose [2] [mg/kg]	further results
COc1ccc2c(=O)c(-c3nn[nH]n3)c[nH]c2c1	–	10	–
O=c1c(-c2nn[nH]n2)c[nH]c2c(F)cccc12	10	0.625	minimal effective dose [3]: 2.5 mg/kg
O=c1c(-c2nn[nH]n2)c[nH]c2c(Cl)cccc12	–	0.078	Ratio [4]: 33; minimal effective dose [5]: 0.156 mg/kg; Ratio [6]: 32
O=c1c(-c2nn[nH]n2)c[nH]c2c(Br)cccc12	> 10	> 5	–
O=c1c(-c2nn[nH]n2)c[nH]c2c(C(F)(F)F)cccc12	> 25	0.156	–
Cc1cccc2c(=O)c(-c3nn[nH]n3)c[nH]c12	> 10	> 5	–
CCc1cccc2c(=O)c(-c3nn[nH]n3)c[nH]c12	> 25	0.312	–
CC(C)c1cccc2c(=O)c(-c3nn[nH]n3)c[nH]c12	10	1.25	–
COc1cccc2c(=O)c(-c3nn[nH]n3)c[nH]c12.O	0.312	0.15	–
CC(C)Oc1cccc2c(=O)c(-c3nn[nH]n3)c[nH]c12	1.25	0.078	–
CSc1cccc2c(=O)c(-c3nn[nH]n3)c[nH]c12	25	10	–
CS(=O)(=O)c1cccc2c(=O)c(-c3nn[nH]n3)c[nH]c12	> 25	10	–
O=c1c(-c2nn[nH]n2)c[nH]c2c(F)ccc(F)c12	10	> 0.156	–
O=c1c(-c2nn[nH]n2)c[nH]c2c(Cl)ccc(Cl)c12	0.312	> 0.156	–
O.O=c1c(-c2nn[nH]n2)c[nH]c2c(Cl)cc(Cl)cc12	> 10	> 0.156	–
O=c1c(-c2nn[nH]n2)c[nH]c2c(Cl)c(Cl)ccc12	> 10	> 0.156	–
COc1ccc(OC)c2c(=O)c(-c3nn[nH]n3)c[nH]c12	> 10	1.25	–
O.O=c1c(-c2nn[nH]n2)c[nH]c2c3c(ccc12)CCCC3	> 25	–	–
COc1ccc2c(O)c(C(=O)O)cnc2c1	> 100	> 50	–
COc1ccc2ncc(C(=O)O)c(O)c2c1	> 100	> 50	–
O=C(O)c1cnc2c(Cl)cccc2c1O	> 100	–	–
O=C([O-])c1cc(=O)c2c(OCC(O)COc3cccc4oc(C(=O)[O-])cc(=O)c34)cccc2o1.[Na+].[Na+] [CROMOLYN SODIUM]	–	–	ED50 [2]: 2.6 mg/kg
O=C1c2ccccc2S(=O)(=O)c2cc(-c3nn[nH]n3)ccc21 [DOXANTRAZOLE]	5	–	–
